From patent US11464749B2, “Bismuth-thiol compositions and methods of use” (Microbion Corporation, priority 2018, dated 2022)
Where two headings read alike, the source gives them in different places.

Assays:
Enterobacter cloacae = assay: Broth microdilution MIC (Example 11); details: ATCCBAA2468
S. agalactiae = assay: Broth microdilution MIC (Example 11); details: Streptococcus agalactiae
Acinetobacter baumannii = assay: Broth microdilution MIC (Example 11)
S. pyogenes = assay: Broth microdilution MIC (Example 11); details: Streptococcus pyogenes
E. faecalis = assay: Broth microdilution MIC (Example 11); details: VRE Lev^R Cip^R Ery^R
S. pneumoniae = assay: Broth microdilution MIC (Example 11); details: Streptococcus pneumoniae
Pseudomonas aeruginosa [1] = details: P. aeruginosa MMX 103 (ATCC 27853); CLSI QC ranges shown in parenthesis; cited from earlier work
[2] = test system: Staphylococcus aureus (MRSA); assay: Broth microdilution MIC (Example 11)
Klebsiella pneumoniae = assay: Broth microdilution MIC (Example 11)
[3] = test system: vancomycin-intermediate Staphylococcus aureus (VISA); assay: Broth microdilution MIC (Example 12); details: Staphylococcus aureus, NRS13 / VISA, read-out: MIC values
Pseudomonas aeruginosa [4] = assay: Broth microdilution MIC (Example 11)
Escherichia coli [5] = assay: Broth microdilution MIC (Example 11)
Haemophilus influenzae = assay: Broth microdilution MIC against Haemophilus influenzae clinical isolates; details: Haemophilus influenzae
Escherichia coli [6] = details: E. coli MMX 102 (ATCC 25922); CLSI QC ranges shown in parenthesis; cited from earlier work
E. faecium = assay: Broth microdilution MIC (Example 11); details: VRE vanA Lev^R Cip^R Ery^R
S. aureus ATCC 29213 = details: control strain ATCC 29213; per CLSI M100-S24 or provided by Microbion; cited from earlier work
M. abscessus complex = assay: MIC against CF bacterial strains (Example 5); type: cell-based, Mycobacterium abscessus; details: Mycobacteroides abscessus, read-out: MIC
Procedure: A range of CF-isolated strains of Mycobacterium avium and Mycobacterium abscessus were included; which allows for understanding of the activity against non-tubercular Mycobacteria (NTM). Two distinct bismuth-thiol compounds were evaluated, including BisEDT and BisBDT. […] The CF-isolates of greater clinical relevance, including both M abscessus spp. and Burkholderia spp., were both consistently found to be much more susceptible to BisEDT and BisBDT.

[7] = Acinetobacter baumannii, A. baumannii MMX 2592, MDR, Lev^R, Cip^R, MEM^R, CAZ^R, Gm^R
[8] = Acinetobacter baumannii, A. baumannii MMX 2593, MDR, Lev^R, Cip^R, MEM^R, CAZ^R, Gm^R
[9] = Acinetobacter baumannii, A. baumannii MMX 3372, MDR, Cip^R, MEM^I, CAZ^I
[10] = Acinetobacter baumannii, A. baumannii MMX 3373, Sensitive
[11] = Acinetobacter baumannii, NCTC13304, A. baumannii MMX 4651 (NCTC 13304), MDR, OXA-27, Lev^R, Cip^R, MEM^R, CAZ^R, Gm^I
[12] = Enterococcus faecalis, VRE, E. faecalis MMX 8960
[13] = Enterococcus faecalis, VRE, E. faecalis MMX 8961
[14] = Enterococcus faecalis, VRE, E. faecalis MMX 8962
[15] = ATCC29213|MRSA|MSSA, S. aureus MMX 101 (ATCC 29213), QC, MSSA
[16] = MRSA, S. aureus MMX 5373, MRSA Lev^R Cip^R CC^R Ery^R Ox^R
[17] = MRSA, S. aureus MMX 6311, MRSA Lev^R Cip^R CC^R Ery^R Ox^R
[18] = MRSA, S. aureus MMX 9203, MRSA Lev^R Cip^R Ery^R Ox^R
[19] = MRSA, S. aureus MMX 9204, MRSA Lev^R Cip^R Ery^R Ox^R
[20] = MRSA, S. aureus MMX 9205, MRSA Lev^R Cip^R CC^R Ery^R Ox^R
[21] = K. pneumoniae MMX 4622, KPC-2, MEM^R, CAZ^R
[22] = K. pneumoniae MMX 4623, KPC-2, MEM^R, CAZ^R, GM^R
[23] = K. pneumoniae MMX 4653, KPC-3, Lev^R, MEM^R, CAZ^R
[24] = K. pneumoniae MMX 4683, KPC-2, Lev^R, MEM^R, CAZ^R
[25] = K. pneumoniae MMX 4684, ESBL, MEM^R
[26] = K. pneumoniae MMX 4685, ESBL, Lev^R, MEM^R, CAZ^R
[27] = K. pneumoniae MMX 4694, KPC-3, Lev^R, MEM^R, CAZ^R
[28] = K. pneumoniae MMX 5979, NDM-1, Lev^R, MEM^R, CAZ^R, Gm^R
[29] = Pseudomonas aeruginosa, ATCC27853, P. aeruginosa MMX 103 (ATCC 27853), QC
[30] = Pseudomonas aeruginosa, P. aeruginosa MMX 1381, MDR, Lev^R, Cip^R, MEM^R, CAZ^R
[31] = Pseudomonas aeruginosa, P. aeruginosa MMX 2562, MDR, Lev^R, Cip^R, MEM^R, CAZ^R
[32] = Pseudomonas aeruginosa, P. aeruginosa MMX 3991, MDR, Lev^R, Cip^R, MEM^R, CAZ^R
[33] = Pseudomonas aeruginosa, P. aeruginosa MMX 4654, IMP-7, Lev^R, Cip^R, MEM^R, CAZ^R
[34] = Pseudomonas aeruginosa, P. aeruginosa MMX 4697, VIM-2, Lev^R, Cip^R, MEM^R, CAZ^R
[35] = ATCC25922, E. coli MMX 102 (ATCC 25922), QC
[36] = ATCCBAA2469, E. coli MMX 5980 (ATCC BAA-2469), NDM-1, Lev^R, MEM^R, CAZ^R, Gm^R
[37] = E. coli MMX 8423, ESBL, Lev^R, CAZ^R, Gm^R
[38] = E. coli MMX 8425, ESBL, Lev^R, CAZ^R, Gm^R

C[C@H]1COc2c(N3CCN(C)CC3)c(F)cc3c(=O)c(C(=O)O)cn1c23 [Levofloxacin, reference compound]
0.03 µg/mL: MIC (Klebsiella pneumoniae; [25])
0.5 µg/mL: MIC (S. agalactiae; S. agalactiae MMX 3741, ERY^R CC^R) | MIC (S. agalactiae; S. agalactiae MMX 4077, ERY^R CC^R) | MIC (S. agalactiae; S. agalactiae MMX 4086, ERY^R CC^R) | MIC (S. pyogenes; S. pyogenes MMX 3068, Ery^R) | MIC (S. pyogenes; S. pyogenes MMX 3929, ERY^R CC^R) | MIC (S. pneumoniae; ATCC49619, S. pneumoniae MMX 6837 (ATCC 49619), QC)
64 µg/mL: MIC (Enterobacter cloacae) | MIC (Acinetobacter baumannii; [7]) | MIC (E. faecalis; [13]) | MIC (E. faecalis; [14]) | MIC (Klebsiella pneumoniae; [23]) | MIC (Klebsiella pneumoniae; [27]) | MIC (Pseudomonas aeruginosa [4]; [30]) | MIC (Pseudomonas aeruginosa [4]; [31]) | MIC (Pseudomonas aeruginosa [4]; [32]) | MIC (Pseudomonas aeruginosa [4]; [33])
0.12 µg/mL: MIC (Acinetobacter baumannii; [10]) | MIC (S. pyogenes; S. pyogenes MMX 3919, ERY^R) | MIC [2, 15]
32 µg/mL: MIC (Acinetobacter baumannii; [8]) | MIC (E. faecalis; [12]) | MIC [2, 16] | MIC [2, 17] | MIC (Klebsiella pneumoniae; [26]) | MIC (Pseudomonas aeruginosa [4]; [34])
8 µg/mL: MIC (Acinetobacter baumannii; [11]) | MIC (S. pneumoniae; S. pneumoniae MMX 880, Lev^R SXT^R CC^R Ery^R Pen^R)
0.06 µg/mL: MIC (Escherichia coli [5]; E. coli MMX 8424, ESBL, CAZ^R)
≥ 4 µg/mL: MIC [3]
(0.008-0.06)^1 μg/mL: CLSI QC range of MIC (Escherichia coli [6])
(0.5-4) μg/mL: CLSI QC range of MIC (Pseudomonas aeruginosa [1])
4 µg/mL: MIC [2, 18] | MIC [2, 19]
16 µg/mL: MIC (Escherichia coli [5]; [36]) | MIC (Escherichia coli [5]; [37]) | MIC (Escherichia coli [5]; [38])
> 64 µg/mL: MIC [2, 20] | MIC (Klebsiella pneumoniae; [24]) | MIC (Klebsiella pneumoniae; [28])
0.25 µg/mL: MIC (S. pyogenes; S. pyogenes MMX 3820, ERY^R CLI^R) | MIC (S. pyogenes; S. pyogenes MMX 5091, ERY^R CC^R)
0.015 µg/mL: MIC (Escherichia coli [5]; [35]) | MIC50 (Haemophilus influenzae) | MIC90 (Haemophilus influenzae)
1 µg/mL: MIC (S. agalactiae; S. agalactiae MMX 3743, ERY^R CC^R) | MIC (S. agalactiae; S. agalactiae MMX 4079, ERY^R CC^R Pen^R MEM^R) | MIC (Acinetobacter baumannii; [9]) | MIC (S. pneumoniae; S. pneumoniae MMX 937, Mem^R SXT^R CC^R Ery^R Pen^R) | MIC (S. pneumoniae; S. pneumoniae MMX 3959, CC^R Ery^R) | MIC (S. pneumoniae; S. pneumoniae MMX 5440, Mem^R SXT^R CC^R Ery^R Pen^R) | MIC (S. pneumoniae; S. pneumoniae MMX 5445, Mem^R SXT^R CC^R Ery^R Pen^R) | MIC (S. pneumoniae; S. pneumoniae MMX 8133, Mem^R SXT^R CC^R Ery^R Pen^R) | MIC (Klebsiella pneumoniae; [21]) | MIC (Klebsiella pneumoniae; [22]) | MIC (Pseudomonas aeruginosa [4]; [29])

Gentamicin
(0.5-2) μg/mL: CLSI QC range of MIC (Pseudomonas aeruginosa [1])
>64 µg/mL: MIC (Acinetobacter baumannii; A. baumannii MMX 2592, MDR, Lev^R, Cip^R, MEM^R, CAZ^R, Gm^R) | MIC (Acinetobacter baumannii; A. baumannii MMX 2593, MDR, Lev^R, Cip^R, MEM^R, CAZ^R, Gm^R) | MIC (E. faecalis; E. faecalis MMX 8960) | MIC (E. faecalis; E. faecalis MMX 8962) | MIC (Pseudomonas aeruginosa [4]; P. aeruginosa MMX 4654, IMP-7, Lev^R, Cip^R, MEM^R, CAZ^R) | MIC (E. faecium; E. faecium MMX 485) | MIC (E. faecium; E. faecium MMX 752)
0.5 µg/mL: MIC (Acinetobacter baumannii; A. baumannii MMX 3372, MDR, Cip^R, MEM^I, CAZ^I)
1 µg/mL: MIC (Pseudomonas aeruginosa [4]; P. aeruginosa MMX 103 (ATCC 27853), QC)
8 µg/mL: MIC (Acinetobacter baumannii; A. baumannii MMX 4651 (NCTC 13304), MDR, OXA-27, Lev^R, Cip^R, MEM^R, CAZ^R, Gm^I) | MIC (E. faecalis; E. faecalis MMX 8961) | MIC (Pseudomonas aeruginosa [4]; P. aeruginosa MMX 1381, MDR, Lev^R, Cip^R, MEM^R, CAZ^R) | MIC (Pseudomonas aeruginosa [4]; P. aeruginosa MMX 2562, MDR, Lev^R, Cip^R, MEM^R, CAZ^R)
4 µg/mL: MIC (Pseudomonas aeruginosa [4]; P. aeruginosa MMX 3991, MDR, Lev^R, Cip^R, MEM^R, CAZ^R) | MIC (Pseudomonas aeruginosa [4]; P. aeruginosa MMX 4697, VIM-2, Lev^R, Cip^R, MEM^R, CAZ^R)
(0.25-1) μg/mL: CLSI QC range of MIC (Escherichia coli [6])
0.12 µg/mL: MIC (Acinetobacter baumannii; A. baumannii MMX 3373, Sensitive)

CC[C@H]1OC(=O)[C@H](C)[C@@H](O[C@H]2C[C@@](C)(OC)[C@@H](O)[C@H](C)O2)[C@H](C)[C@@H](O[C@@H]2O[C@H](C)C[C@H](N(C)C)[C@H]2O)[C@](C)(OC)C[C@@H](C)C(=O)[C@H](C)[C@@H](O)[C@]1(C)O [Clarithromycin, reference compound]
0.25 (0.12-0.5) mcg/mL: Expected MIC: goal (acceptable range) (S. aureus ATCC 29213)
1 µg/mL: MIC (M. abscessus complex; AMT0130-8, M abscessus/massiliense complex)
> 32 µg/mL: MIC (M. abscessus complex; ATCC19977, ATCC 19977, M abscessus/massiliense complex, Macrolide resistant (inducible))
2 µg/mL: MIC (M. abscessus complex; AMT153-9, M abscessus/massiliense complex) | MIC (M. abscessus complex; AMT0493-2, M abscessus/massiliense complex, Amikacin resistant)

CC(C)(O/N=C(\C(=O)N[C@@H]1C(=O)N2C(C(=O)[O-])=C(C[n+]3ccccc3)CS[C@H]12)c1csc(N)n1)C(=O)O [Ceftazidime]
2 µg/mL: MIC (Pseudomonas aeruginosa [4]; [29])
0.12 µg/mL: MIC (Escherichia coli [5]; [35])
> 32 µg/mL: MIC (Enterobacter cloacae) | MIC (Acinetobacter baumannii; [11]) | MIC (E. faecalis; [12]) | MIC (E. faecalis; [13]) | MIC (E. faecalis; [14]) | MIC [2, 16] | MIC [2, 17] | MIC [2, 18] | MIC [2, 19] | MIC [2, 20] | MIC (Klebsiella pneumoniae; [21]) | MIC (Klebsiella pneumoniae; [22]) | MIC (Klebsiella pneumoniae; [23]) | MIC (Klebsiella pneumoniae; [24]) | MIC (Klebsiella pneumoniae; [26]) | MIC (Klebsiella pneumoniae; [27]) | MIC (Klebsiella pneumoniae; [28]) | MIC (Pseudomonas aeruginosa [4]; [31]) | MIC (Pseudomonas aeruginosa [4]; [33]) | MIC (Escherichia coli [5]; [36])
16 µg/mL: MIC (Acinetobacter baumannii; [9]) | MIC (Pseudomonas aeruginosa [4]; [32]) | MIC (Escherichia coli [5]; E. coli MMX 8424, ESBL, CAZ^R) | MIC (Escherichia coli [5]; [38])
4 µg/mL: MIC (Acinetobacter baumannii; [10])
(1-4) μg/mL: CLSI QC range of MIC (Pseudomonas aeruginosa [1])
(0.06-0.5) μg/mL: CLSI QC range of MIC (Escherichia coli [6])
32 µg/mL: MIC (Acinetobacter baumannii; [7]) | MIC (Acinetobacter baumannii; [8]) | MIC (Pseudomonas aeruginosa [4]; [30]) | MIC (Pseudomonas aeruginosa [4]; [34]) | MIC (Escherichia coli [5]; [37])
8 µg/mL: MIC [2, 15] | MIC (Klebsiella pneumoniae; [25])
